Source: patent publication US20250177425A1, “SAIKOSAPONIN C AS COMPOSITION FOR TREATING OR PREVENTING AGE-RELATED VASCULAR DISEASES INCLUDING ARTERIOSCLEROSIS” (AGINGTARGET, INC., priority 2022, published 2025)

What was measured:
[1] = system: PAI-1, ICAM-1, and VCAM-1 in HPAEC; test: Western blotting of vascular senescence marker proteins; assay type: cell-based, human; conditions: 5 μM and 20 μM pretreatment 2 hours, 33 mM high glucose 48 hours, dose-dependent
Protocol: (§1) Similar to Experimental Example 1, a high-fat diet evaluation system at the cellular level was established.
(§2) Specifically, two types of vascular endothelial cells, namely, HUVEC and HPAEC cells, were pretreated with Saikosaponin C at concentrations of 5 μM and 20 μM for 2 hours, and then treated with high glucose at a concentration of 33 mM for 72 hours (for SA-β-gal staining) or 48 hours (for vascular senescence marker protein analysis). Then, the degree of cellular senescence was measured through SA-β-gal staining and measured as the ratio of the total cells to cells stained in blue (SA-β-gal positive). In addition, the expression of vascular senescence marker proteins such as PAI-1, ICAM-1, and VCAM-1 was analyzed.
(§3) Specifically, the senescence of vascular endothelial cells was evaluated by SA-β-gal staining to measure the activity of β-galactosidase, which is an enzyme present in the lysosome, an organelle within the cell (FIG. 3C and FIG. 3D) and this was represented as a graph (FIG. 3A and FIG. 3B). In addition, FIGS. 3E and 3F show the results of Western blotting to determine the expression of vascular senescence marker proteins such as PAI-1, ICAM-1, and VCAM-1 in two types of vascular endothelial cells (HUVEC, HPAEC).

[2] = system: PAI-1, ICAM-1, and VCAM-1 in HUVEC; test: as above; assay type: cell-based, human; conditions: 5 μM and 20 μM pretreatment 2 hours, 33 mM high glucose 48 hours, dose-dependent
Protocol: as §1, §2, §3

HPAEC = test: Fluorescence image analysis of high glucose-induced ROS generation; assay type: cell-based, human; conditions: 5 μM and 20 μM pretreatment 2 hours, 33 mM high glucose 24 hours, dose-dependent
Protocol: as §1
(§4) Specifically, two types of vascular endothelial cells, namely, HUVEC and HPAEC cells, were pretreated with Saikosaponin C at concentrations of 5 μM and 20 μM for 2 hours, and then treated with high glucose at a concentration of 33 mM for 24 hours. Then, hydrogen peroxide (H2O2) and superoxide anion (O2^⋅−) generated in the cytoplasm and mitochondria were measured using each fluorescent probe. In addition, samples treated with 100 μM hydrogen peroxide (a ROS-inducing agent) for 1 hour and then treated for an additional 23 hours after medium change were used as positive control groups.
(§5) Different analytical reagents were used depending on the type of ROS and the intracellular location where they were generated. Specifically, cytosolic hydrogen peroxide, cytosolic superoxide anion, mitochondrial hydrogen peroxide, and mitochondrial superoxide anion were measured using H2DCFDA (2,7-dichlorodihydrofluorescein diacetate), DHE (dihydroethidium), DHR (dihydrorhodamine 123), and Mito-SOX reagents, respectively. The H2DCFDA (1 μM, 45 min staining), DHE (10 µM, 60 min staining), DHR (20 µM, 30 min staining), and Mito-SOX (5 μM, 10 min staining) were used as ROS-specific fluorescent probes for fluorescence image analysis.

HUVEC [3] = test: as above; assay type: cell-based, human; conditions: 5 μM and 20 μM pretreatment 2 hours, 33 mM high glucose 24 hours, dose-dependent
Protocol: as §1, §4, §5

HUVEC [4] = test: Mechanism study: SA-β-gal staining with NOS and Sirt1 inhibitors; assay type: cell-based, human; conditions: 20 μM pretreatment 2 hours, 33 mM high glucose 72 hours
Protocol: Similar to Experimental Example 1, a high-fat diet evaluation system at the cellular level was established. Specifically, […], which are vascular endothelial cells, were pretreated with Saikosaponin C at a concentration of 20 μM for 2 hours, and then treated with high glucose at a concentration of 33 mM for 72 hours (for SA-β-gal staining) or 36 hours (for the analysis of enzyme activity of NOS and Sirt1). Then, SA-β-gal staining, NOS enzyme activity, and Sirt1 enzyme activity were analyzed. To analyze whether or not NOS and Sirt1 protein are involved in the anti-vascular aging effect of Saikosaponin C and the relationship between NOS and Sirt1 protein, L-NG-nitro arginine methyl ester (L-NAME) (5 mM), an inhibitor of NOS, and EX-527 (10 μM), an inhibitor of Sirt1 protein, were used. […] The senescence of vascular endothelial cells was assessed through intracellular SA-β-gal staining (FIG. 8A). The activities of NOS (FIG. 8B) and Sirt1 protein (FIG. 8C) were measured using the NOS Activity Assay Kit and the Sirt1 Activity Assay Kit, respectively.

[5] = system: ICAM-1 and VCAM-1 in HCAEC; test: Western blotting of adhesion proteins after TNF-α; assay type: cell-based, human; conditions: 5 μM and 20 μM pretreatment 2 hours, TNF-α 20 ng/ml 8 hours
Protocol: (§6) Specifically, two types of vascular endothelial cells, namely, HUVEC (human umbilical vein endothelial cells) and HCAEC (human coronary artery endothelial cells), were pretreated with Saikosaponin C at concentrations of 5 μM and 20 μM for 2 hours, and then treated with TNF-α (20 ng/ml) for 8 hours. Then, adhesion of monocyte-vascular endothelial cell and expression of cell adhesion molecules (ICAM-1, VCAM-1) of vascular endothelial cells were observed. […] The adhesion of monocyte-endothelial cells was evaluated by imaging analysis using a confocal microscope and fluorescence analysis using a microplate reader, and expression of adhesion proteins (ICAM-1 and VCAM-1) was evaluated by Western blotting.
(§7) Calcein AM fluorescence was analyzed using a confocal microscope and a microplate reader, and the expression of cell adhesion proteins (ICAM-1, VCAM-1) were evaluated through Western blotting.
(§8) FIGS. 9A and 9B show the results of analysis of monocyte-endothelial cell adhesion in two types of vascular endothelial cells (HUVEC, HCAEC) using a confocal microscope, and FIGS. 9C and 9D show the results of analysis of Calcein AM fluorescence (at an excitation wavelength of 488 nm, and at an emission wavelength of 517 nm) in the same experiment using a microplate reader. […]

[6] = system: ICAM-1 and VCAM-1 in HUVEC; test: Western blotting of adhesion proteins after TNF-α; assay type: cell-based, human; conditions: 5 μM and 20 μM pretreatment 2 hours, TNF-α 20 ng/ml 8 hours
Protocol: as §6, §7, §8

NLRP3 inflammasome = NLRP3 inflammasome (Homo sapiens, UniProt Q96P20); test: NLRP3 inflammasome activity: caspase-1 cleavage (Western blotting); conditions: PMA-differentiated THP-1 macrophages; 20 μM pretreatment 2 hours, MSU 200 μg/ml 6 hours
Sequence of NLRP3 inflammasome (Q96P20 whole entry): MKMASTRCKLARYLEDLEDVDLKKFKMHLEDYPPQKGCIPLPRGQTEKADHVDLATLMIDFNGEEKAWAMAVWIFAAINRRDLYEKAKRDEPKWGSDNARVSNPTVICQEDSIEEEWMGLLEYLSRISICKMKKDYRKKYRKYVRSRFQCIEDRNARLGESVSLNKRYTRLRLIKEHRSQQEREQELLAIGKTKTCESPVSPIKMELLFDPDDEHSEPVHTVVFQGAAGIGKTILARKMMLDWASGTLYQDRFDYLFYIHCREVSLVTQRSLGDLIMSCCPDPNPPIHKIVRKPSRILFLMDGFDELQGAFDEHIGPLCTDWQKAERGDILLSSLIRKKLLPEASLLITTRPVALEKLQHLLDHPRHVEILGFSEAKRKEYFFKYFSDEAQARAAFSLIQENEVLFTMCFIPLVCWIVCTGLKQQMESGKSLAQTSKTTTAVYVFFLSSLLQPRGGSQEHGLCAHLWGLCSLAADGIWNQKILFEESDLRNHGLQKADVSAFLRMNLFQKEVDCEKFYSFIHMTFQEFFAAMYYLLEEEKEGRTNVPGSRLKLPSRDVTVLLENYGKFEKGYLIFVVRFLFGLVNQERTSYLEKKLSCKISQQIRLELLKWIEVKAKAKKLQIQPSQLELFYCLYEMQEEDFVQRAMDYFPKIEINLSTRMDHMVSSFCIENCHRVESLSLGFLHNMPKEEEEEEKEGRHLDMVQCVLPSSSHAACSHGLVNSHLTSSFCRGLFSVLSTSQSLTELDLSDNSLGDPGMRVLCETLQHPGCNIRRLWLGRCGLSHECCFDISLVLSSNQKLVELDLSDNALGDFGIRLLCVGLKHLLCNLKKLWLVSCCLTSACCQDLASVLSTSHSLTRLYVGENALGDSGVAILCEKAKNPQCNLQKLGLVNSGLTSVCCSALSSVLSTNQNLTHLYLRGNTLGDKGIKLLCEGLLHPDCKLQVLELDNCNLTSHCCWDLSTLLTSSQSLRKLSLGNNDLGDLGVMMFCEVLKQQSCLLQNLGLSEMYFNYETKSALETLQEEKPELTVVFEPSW

Structure (SMILES): CC1O[C@@H](O[C@@H]2C(CO[C@@H]3OC(CO)[C@@H](O)C(O)C3O)O[C@@H](O[C@H]3CC[C@]4(C)[C@H]5C=C[C@]67OC[C@@]8(CCC(C)(C)C[C@H]86)[C@@H](O)C[C@@]7(C)[C@]5(C)CC[C@H]4C3(C)C)C(O)C2O)C(O)C(O)[C@H]1O (some centres unmarked) [Saikosaponin C]
- expression of vascular senescence marker proteins PAI-1, ICAM-1, and VCAM-1 [1]: reduced
- expression of vascular senescence marker proteins PAI-1, ICAM-1, and VCAM-1 [2]: reduced
- high glucose-induced ROS generation (cytosolic and mitochondrial hydrogen peroxide and superoxide anion) (HPAEC): significantly suppressed
- high glucose-induced ROS generation (cytosolic and mitochondrial hydrogen peroxide and superoxide anion) (HUVEC [3]): significantly suppressed
- high glucose-induced SA-β-gal positive HUVEC cells (HUVEC [4]): reduced
- expression of adhesion proteins (ICAM-1, VCAM-1) of vascular endothelial cells [5]: inhibited
- expression of adhesion proteins (ICAM-1, VCAM-1) of vascular endothelial cells [6]: inhibited
- caspase-1 cleavage (NLRP3 inflammasome): inhibited
